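Method: 48-hour compound exposure of cells in 96-well plates, five concentrations, linear interpolation of endpoints. TGI: concentration producing complete growth inhibition.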
Experiments:
Test in all cases: DTP human tumour cell line panel, 48 h
UO-31 renal = test system: UO-31 renal
BT-549 breast = test system: BT-549 breast
KM12 colon = test system: KM12 colon
SW-620 colon = test system: SW-620 colon
LOX IMVI melanoma = test system: LOX IMVI melanoma
HL-60(TB) leukemia = test system: HL-60(TB) leukemia
NCI-H226 lung = test system: NCI-H226 lung
MALME-3M melanoma = test system: MALME-3M melanoma
HOP-62 NSCLC = test system: HOP-62 NSCLC
M14 melanoma = test system: M14 melanoma
SK-MEL-5 melanoma = test system: SK-MEL-5 melanoma
HOP-92 NSCLC = test system: HOP-92 NSCLC
CAKI-1 renal = test system: CAKI-1 renal
786-0 renal = test system: 786-0 renal
DU-145 prostate = test system: DU-145 prostate
PC-3 prostate = test system: PC-3 prostate
HCT-116 colon = test system: HCT-116 colon
IGROV1 ovarian = test system: IGROV1 ovarian
SF-268 CNS = test system: SF-268 CNS
RXF 393 renal = test system: RXF 393 renal

| Compound | TGI (UO-31 renal) [µM] | TGI (BT-549 breast) [µM] | TGI (KM12 colon) [µM] | TGI (SW-620 colon) [µM] | TGI (LOX IMVI melanoma) [µM] | TGI (HL-60(TB) leukemia) [µM] | TGI (NCI-H226 lung) [µM] | TGI (MALME-3M melanoma) [µM] | TGI (HOP-62 NSCLC) [µM] | TGI (M14 melanoma) [µM] | TGI (SK-MEL-5 melanoma) [µM] | TGI (HOP-92 NSCLC) [µM] | TGI (CAKI-1 renal) [µM] | TGI (786-0 renal) [µM] | TGI (DU-145 prostate) [µM] | TGI (PC-3 prostate) [µM] | TGI (HCT-116 colon) [µM] | TGI (IGROV1 ovarian) [µM] | TGI (SF-268 CNS) [µM] | TGI (RXF 393 renal) [µM] |
| --- | --- | --- | --- | --- | --- | --- | --- | --- | --- | --- | --- | --- | --- | --- | --- | --- | --- | --- | --- | --- |
| CCCCCCCCCCCCOc1ccc(/C=C/C2=[N+](CCCl)CCO2)cc1 | > 100 | > 100 | > 100 | > 100 | 39.9 | 28.8 | > 100 | > 100 | > 100 | > 100 | > 100 | 86.5 | > 100 | 42.7 | > 100 | > 100 | 33.5 | 77.6 |  |  |
| N#Cc1c(O)cc(=O)n2c1[nH]c1ccccc12 | > 100 | > 100 | > 100 | > 100 |  | > 100 | > 100 | > 100 | > 100 | > 100 | > 100 | > 100 | > 100 | > 100 | > 100 | > 100 | > 100 | > 100 | > 100 | > 100 |
| O=c1c2cc(Cl)ccc2[nH]c2cc(O)cc(O)c12 |  | > 10 | > 10 | > 10 |  | > 10 | > 10 | > 10 | > 10 | > 10 | > 10 | > 10 | > 10 | > 10 | > 10 | > 10 | > 10 | > 10 | > 10 | > 10 |
| O=c1[nH]nc(Cn2c3ccc(Br)cc3c3nc4ccccc4nc32)n1C1CCCCC1 | > 100 | > 100 | > 100 | > 100 | > 100 |  | > 100 |  | 52.8 | > 100 | > 100 | 63.3 | > 100 | > 100 | > 100 | 59.8 | > 100 | > 100 | > 100 | > 100 |
| SCc1ccc(CS)s1 | > 100 | > 100 | > 100 | > 100 | > 100 | > 100 |  |  | > 100 | > 100 | > 100 | > 100 |  | > 100 | > 100 | > 100 | > 100 | > 100 | > 100 |  |
| CCOC(=O)c1c(-c2ccc(Br)cc2)ccn1C |  | > 10 | > 10 | > 10 | > 10 | > 10 | > 10 | > 10 | > 10 | > 10 | > 10 |  | > 10 | > 10 | > 10 | > 10 | > 10 | > 10 | > 10 | > 10 |
| Fc1cccc(Cl)c1C1SCc2nc3cc4ccccc4cc3n21 (configuration not stated) |  | > 100 | > 100 | > 100 | > 100 |  | > 100 | > 100 | > 100 | > 100 |  | 72.3 | > 100 | > 100 | > 100 | > 100 | > 100 | > 100 | > 100 | > 100 |
| COc1ccc(N=Nc2c(C)c(C#N)c(=S)n(C3OC(CO)C(O)C(O)C3O)c2C)cc1 (configuration not stated) | > 100 | > 100 | > 100 | > 100 | > 100 | > 100 |  |  | > 100 | > 100 | 35.1 | 64.8 | > 100 | > 100 | > 100 | > 100 | > 100 | > 100 | > 100 | > 100 |
| O=C(CC(=O)N1N=C(N(c2ccccc2)c2ccccc2)CC1c1ccccc1)Nc1ccc(Cl)cc1 (configuration not stated) | > 100 | > 100 | > 100 | > 100 |  | > 100 | > 100 |  | > 100 | > 100 | > 100 | > 100 | > 100 | > 100 | > 100 | > 100 | > 100 | > 100 | > 100 | > 100 |
| Cc1c(N/C=C(\C#N)C(=O)c2ccc(Cl)cc2)c(=O)n(-c2ccccc2)n1C | > 100 | > 100 | > 100 | > 100 | > 100 | > 100 | > 100 | > 100 |  | > 100 | > 100 | > 100 | > 100 | > 100 | > 100 | > 100 | > 100 | > 100 |  | > 100 |
| O=C(CN1CCOCC1)c1ccc2c(c1)oc(=O)n2CCN1CCCC1 |  | > 100 | > 100 | > 100 | > 100 | > 100 | > 100 | > 100 | > 100 | > 100 | > 100 |  | > 100 | > 100 | > 100 | > 100 | > 100 | > 100 | > 100 | > 100 |
| Cc1nc2ccc(NC3OC(CO)C(O)C(O)C3O)cc2c(=O)n1-c1ccccc1 (configuration not stated) | > 100 | > 100 | > 100 | > 100 | > 100 | > 100 | > 100 | > 100 | > 100 |  | > 100 |  | > 100 | > 100 | > 100 | > 100 | > 100 | > 100 | > 100 | > 100 |
| CCOC(=O)/C=C/[C@H](O)[C@@H](O)/C=C/C(=O)OCC | > 100 | > 100 | 47.6 | 40.6 | 74.2 |  | > 100 | 46.8 | 85 |  | > 100 | 33.5 | 45.8 | > 100 | > 100 | > 100 | 43 | > 100 | > 100 | 79.4 |
